In patent US9394285B2 (Pfizer Inc., priority 2013, dated 2016):
“And” between values parts separate entries of the source, which are not always exact repeats. Equal entries are not always repeated.

Tests used:
[1] = molecular target: human AMPK (full-length γ1, β1 and α1 subunits) (Homo sapiens (Human), UniProt Q13131+Q9Y478); test: AMPK in vitro biochemical assay (33P-based, SAMS peptide, PP2A dephosphorylation); details: for EC50: activation of phosphorylated AMPK, 33P-ATP, SAMS peptide, PP2A treatment, 4-parameter fit; for Emax: read-out: Maximum
How it was run: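 Phosphorylated full-length α1β1γ1 AMPK (E. coli-expressed, His-purified, gel-filtered) preincubated 15 min RT with compound in HEPES pH 7.5, 10 mM MgCl2 buffer, then PP2A added to dephosphorylate pThr172.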

[2] = counts as % of positive control wells (enzyme, allosteric activator or AMP, PP2A and substrate)

Sequence of human AMPK (full-length γ1, β1 and α1 subunits) (Q13131 whole entry): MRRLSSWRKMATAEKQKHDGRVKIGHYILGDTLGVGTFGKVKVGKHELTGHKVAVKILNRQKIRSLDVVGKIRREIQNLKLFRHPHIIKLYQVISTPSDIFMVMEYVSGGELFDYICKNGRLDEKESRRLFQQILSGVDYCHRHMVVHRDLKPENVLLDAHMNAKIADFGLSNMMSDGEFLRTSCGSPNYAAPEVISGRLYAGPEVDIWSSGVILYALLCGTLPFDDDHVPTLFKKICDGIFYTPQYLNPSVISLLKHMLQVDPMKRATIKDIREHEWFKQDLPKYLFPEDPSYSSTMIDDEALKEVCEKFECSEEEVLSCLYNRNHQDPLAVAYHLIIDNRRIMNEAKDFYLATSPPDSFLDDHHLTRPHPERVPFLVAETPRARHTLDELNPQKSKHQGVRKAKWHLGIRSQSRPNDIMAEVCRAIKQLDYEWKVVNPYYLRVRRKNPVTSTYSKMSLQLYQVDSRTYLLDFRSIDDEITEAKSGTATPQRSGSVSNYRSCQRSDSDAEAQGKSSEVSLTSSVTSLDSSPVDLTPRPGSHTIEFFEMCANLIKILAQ
Sequence of human AMPK (full-length γ1, β1 and α1 subunits) (Q9Y478 whole entry): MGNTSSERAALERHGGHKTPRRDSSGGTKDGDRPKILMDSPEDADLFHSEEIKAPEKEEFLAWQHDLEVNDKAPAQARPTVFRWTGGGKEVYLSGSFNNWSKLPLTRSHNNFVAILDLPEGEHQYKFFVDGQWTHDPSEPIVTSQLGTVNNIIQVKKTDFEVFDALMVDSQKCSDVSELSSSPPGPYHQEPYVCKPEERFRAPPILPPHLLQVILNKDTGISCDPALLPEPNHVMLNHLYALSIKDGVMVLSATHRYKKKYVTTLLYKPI
Sequence of human AMPK (full-length γ1, β1 and α1 subunits) (P54619 whole entry partner): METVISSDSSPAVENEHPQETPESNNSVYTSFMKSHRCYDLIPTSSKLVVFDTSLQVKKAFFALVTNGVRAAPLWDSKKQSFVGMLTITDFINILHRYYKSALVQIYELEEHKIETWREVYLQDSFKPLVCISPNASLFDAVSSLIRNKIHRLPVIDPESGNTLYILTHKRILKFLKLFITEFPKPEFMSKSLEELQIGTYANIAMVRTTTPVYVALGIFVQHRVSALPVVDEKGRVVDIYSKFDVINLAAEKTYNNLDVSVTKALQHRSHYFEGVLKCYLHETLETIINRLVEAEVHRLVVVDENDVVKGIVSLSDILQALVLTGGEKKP

Row | Compound | EC50 [1] | Emax [1, 2] [%] | melting point | Maximum [1, 2] [%]
1 | N#Cc1cc2[nH]cc(C(=O)O)c2cc1-c1ccc(C2(CO)CC2)cc1 [Example 23, 6-cyano-5-{4-[1-(hydroxymethyl)cyclopropyl]phenyl}-1H-indole-3-carboxylic acid] | 16 nM | 88 | 270.9 to 271.6 °C | 
2 | O=C(O)c1c[nH]c2cc(Cl)c(-c3ccc(OCCCO)cc3)cc12 [Example 30, 6-chloro-5-[4-(3-hydroxypropoxy)phenyl]-1H-indole-3-carboxylic acid] | 30 nM | 92 | 209.3 to 209.6 °C | 
3 | O=C(O)c1n[nH]c2cc(F)c(-c3ccc(C4CCOCC4)cc3)cc12 [Example 130, 6-Fluoro-5-(4-(tetrahydro-2H-pyran-4-yl)phenyl)-1H-indazole-3-carboxylic acid] | 305 nM | 100 | 295 °C | 
4 | COc1ccc(-c2cc3c(S(=O)(=O)O)c[nH]c3cc2Cl)cc1 [Example 132, 6-Chloro-5-(4-methoxyphenyl)-1H-indole-3-sulfonic acid] | 483 nM | 46 | 240 °C (dec.) | 
5 | O=C(O)c1c[nH]c2cc(Cl)c(-c3ccc(OCc4ncccn4)cc3)cc12 [Example 160, 6-chloro-5-[4-(pyrimidin-2-ylmethoxy)phenyl]-1H-indole-3-carboxylic acid] | 17.3 nM | 118 |  | 
6 | COc1nc(N2CCC(O)C2)ccc1-c1cc2c(C(=O)O)c[nH]c2cc1Cl (centres unmarked) [Example 161, 6-chloro-5-[6-(3-hydroxypyrrolidin-1-yl)-2-methoxypyridin-3-yl]-1H-indole-3-carboxylic acid] | 8.33 nM | 92.9 |  | 
7 | CC(C)c1ccc(-c2cc3c(C(=O)O)c[nH]c3cc2Cl)cc1 [Example 162, 6-chloro-5-[4-(propan-2-yl)phenyl]-1H-indole-3-carboxylic acid] | 192 nM | 123 |  | 
8 | CC(C)(CO)c1ccc(-c2cc3c(C(=O)O)c[nH]c3cc2Cl)cc1F [Example 163, 6-chloro-5-[3-fluoro-4-(1-hydroxy-2-methylpropan-2-yl)phenyl]-1H-indole-3-carboxylic acid] | 12.9 nM and 10.3 nM | 110 |  | 
9 | O=C(O)c1c[nH]c2cc(Cl)c(-c3ccc(C4(CO)CCC4)cc3F)cc12 [Example 164, 6-chloro-5-{2-fluoro-4-[1-(hydroxymethyl)cyclobutyl]phenyl}-1H-indole-3-carboxylic acid] | 17.5 nM | 142 |  | 
10 | O=C(O)c1c[nH]c2cc(F)c(-c3ccc(C4(CO)CCC4)cc3F)cc12 [Example 165, 6-fluoro-5-{2-fluoro-4-[1-(hydroxymethyl)cyclobutyl]phenyl}-1H-indole-3-carboxylic acid] | 31.9 nM | 159 |  | 
11 | O=C(O)c1c[nH]c2cc(F)c(-c3ccc(C4CCOCC4)cc3)c(F)c12 [Example 166, 4,6-difluoro-5-[4-(tetrahydro-2H-pyran-4-yl)phenyl]-1H-indole-3-carboxylic acid] | 129 nM | 107 |  | 
12 | O=C(O)c1c[nH]c2cc(F)c(-c3ccc(C4(CO)CCC4)cc3)c(F)c12 [Example 167, 4,6-difluoro-5-{4-[1-(hydroxymethyl)cyclobutyl]phenyl}-1H-indole-3-carboxylic acid] | 9.33 nM |  |  | 143.1
13 | O=C(O)c1c[nH]c2cc(Cl)c(-c3ccc(C4CCCOC4)cc3)cc12 (centres unmarked) [Example 168, 6-chloro-5-[4-(tetrahydro-2H-pyran-3-yl)phenyl]-1H-indole-3-carboxylic acid] | 171 nM | 109 |  | 
14 | COc1nc(N2CCOCC2)ccc1-c1cc2c(C(=O)O)c[nH]c2cc1Cl [Example 174, 6-chloro-5-[2-methoxy-6-(morpholin-4-yl)pyridin-3-yl]-1H-indole-3-carboxylic acid] | 15.3 nM | 49.4 |  | 
15 | COc1cc(-c2cc3c(C(=O)NS(C)(=O)=O)c[nH]c3cc2Cl)ccc1C(C)(C)CO [Example 177, 6-chloro-5-[4-(1-hydroxy-2-methylpropan-2-yl)-3-methoxyphenyl]-N-(methylsulfonyl)-1H-indole-3-carboxamide] | 62.3 nM | 111 |  | 
16 | O=C(O)c1c[nH]c2cc(Cl)c(-c3ccc(OCCn4cccn4)cc3)cc12 [Example 180, 6-chloro-5-{4-[2-(1H-pyrazol-1-yl)ethoxy]phenyl}-1H-indole-3-carboxylic acid] | 11.6 nM | 76.2 |  | 
17 | O=C(O)c1c[nH]c2cc(Cl)c(-c3ccc(OCC4CCO4)cc3)cc12 (centres unmarked) [Example 182, 6-chloro-5-[4-(oxetan-2-ylmethoxy)phenyl]-1H-indole-3-carboxylic acid] | 19 nM | 80 |  | 
18 | CC(CO)Oc1ccc(-c2cc3c(C(=O)O)c[nH]c3cc2Cl)cc1 (centres unmarked) [Example 183, 6-chloro-5-{4-[(1-hydroxypropan-2-yl)oxy]phenyl}-1H-indole-3-carboxylic acid] | 28.1 nM | 87.3 |  | 
19 | COc1nc(N2CC[C@H](O)C2)ccc1-c1cc2c(C(=O)O)c[nH]c2cc1Cl [Example 184, 6-chloro-5-{6-[(3S)-3-hydroxypyrrolidin-1-yl]-2-methoxypyridin-3-yl}-1H-indole-3-carboxylic acid] | 6.2 nM | 84 |  | 
20 | COc1nc(N2CC[C@@H](O)C2)ccc1-c1cc2c(C(=O)O)c[nH]c2cc1Cl [Example 185, 6-chloro-5-{6-[(3R)-3-hydroxypyrrolidin-1-yl]-2-methoxypyridin-3-yl}-1H-indole-3-carboxylic acid] | 2.9 nM | 106 |  | 
21 | COc1nc(N(C)CCO)ccc1-c1cc2c(C(=O)O)c[nH]c2cc1Cl [Example 186, 6-chloro-5-{6-[(2-hydroxyethyl)(methyl)amino]-2-methoxypyridin-3-yl}-1H-indole-3-carboxylic acid] | 84.5 nM | 114 |  | 
22 | COC1CCN(CCCOc2ccc(-c3cc4c(C(=O)O)c[nH]c4cc3Cl)cc2)CC1 [Example 187, 6-chloro-5-{4-[3-(4-methoxypiperidin-1-yl)propoxy]phenyl}-1H-indole-3-carboxylic acid] | 61.4 nM | 105 |  | 
23 | CN1CCN(CCCOc2ccc(-c3cc4c(C(=O)O)c[nH]c4cc3Cl)cc2)CC1=O [Example 188, 6-chloro-5-{4-[3-(4-methyl-3-oxopiperazin-1-yl)propoxy]phenyl}-1H-indole-3-carboxylic acid] | 52.7 nM | 129 |  | 
24 | O=C(O)c1c[nH]c2cc(Cl)c(-c3ccc(OCCCN4CC[C@@H](F)C4)cc3)cc12 [Example 189, 6-chloro-5-(4-{3-[(3R)-3-fluoropyrrolidin-1-yl]propoxy}phenyl)-1H-indole-3-carboxylic acid] | 57.7 nM | 112 |  | 
25 | O=C(O)c1c[nH]c2cc(F)c(-c3ccc(OCCC4CCOC4)cc3)c(F)c12 (centres unmarked) [Example 190, 4,6-difluoro-5-{4-[2-(tetrahydrofuran-3-yl)ethoxy]phenyl}-1H-indole-3-carboxylic acid] | 109 nM | 108 |  | 
26 | O=C(O)c1c[nH]c2cc(F)c(-c3ccc(OCCC4CCCO4)cc3)c(F)c12 (centres unmarked) [Example 191, 4,6-difluoro-5-{4-[2-(tetrahydrofuran-2-yl)ethoxy]phenyl}-1H-indole-3-carboxylic acid] | 121 nM | 140 |  | 
